Active and inactive are the calls of the source.
How the values were obtained:
[1] = growth suppression of PTEN-null colon cells, dose response, cell-based, HCT116 PTEN knockout (AID 1047); format: functional;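 further: HCT116 colon tumor cells with PTEN knocked out; cells exposed to compound for 60 hours before readout; potency for loss of cell viability measured by luminescence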
[2] = growth suppression of beta-catenin-knockout colon cells, dose response, cell-based, HCT116, human colon tumor (AID 1045); format: functional;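 further: HCT116 colon tumor cells with beta catenin knocked out; cells exposed to compound for 60 hours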
[3] = target: Large T antigen (Simian virus 40, UniProt P03070); format: functional, Betapolyomavirus macacae;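 further: Confirmatory-stage PubChem screen for compounds that inhibit SV40 T antigen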
[4] = HEp-2 cell cytotoxicity, dose response, cytotoxicity control for RSV inhibitor project, HTS (AID 2410); format: functional; conditions: human respiratory syncytial virus
[5] = target: T1, Calpain-2 catalytic subunit (Sus scrofa, UniProt P43367); assay: pig calpain II inhibitor potency, dose response, biochemical, fluorogenic peptide substrate (AID 1420); format: functional
T1 sequence (P43367 whole entry): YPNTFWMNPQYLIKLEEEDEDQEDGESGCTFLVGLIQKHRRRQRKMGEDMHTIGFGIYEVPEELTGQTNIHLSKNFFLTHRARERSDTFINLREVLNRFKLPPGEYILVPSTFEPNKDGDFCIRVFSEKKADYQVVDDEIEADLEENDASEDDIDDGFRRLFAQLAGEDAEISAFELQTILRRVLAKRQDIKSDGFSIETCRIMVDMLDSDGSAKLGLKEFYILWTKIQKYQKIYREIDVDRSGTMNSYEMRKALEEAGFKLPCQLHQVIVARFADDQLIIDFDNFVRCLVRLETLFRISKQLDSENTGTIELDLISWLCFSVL

[6] = NIH-3T3 fibroblast cytotoxicity, dose response, cytotoxicity control, cell-based, fluorescence, Alamar Blue, secondary assay (AID 2327); format: functional;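 further: NIH-3T3 mouse fibroblasts cultured with fluconazole at 8 µg/mL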
[7] = C. albicans growth with fluconazole, confirmation, fluorescence, retest (AID 2467); format: functional, cell-based
[8] = target: T2, Carboxy-terminal domain RNA polymerase II polypeptide A small phosphatase 1 (Homo sapiens, UniProt Q9GZU7); assay: inhibitors of CTDSP1, concentration-response testing, biochemical assay, absorbance-based, actives from ultra-high-throughput screening (AID 540297); format: functional
T2 sequence (Q9GZU7 whole entry): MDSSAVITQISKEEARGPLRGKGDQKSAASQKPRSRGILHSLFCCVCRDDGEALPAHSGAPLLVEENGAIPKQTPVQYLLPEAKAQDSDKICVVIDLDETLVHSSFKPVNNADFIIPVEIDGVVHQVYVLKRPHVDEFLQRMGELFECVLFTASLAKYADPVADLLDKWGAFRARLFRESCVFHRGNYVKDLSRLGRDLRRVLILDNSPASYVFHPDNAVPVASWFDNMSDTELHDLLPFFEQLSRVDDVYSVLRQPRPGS

[9] = target: T3, RNA-binding protein pos-1 (Caenorhabditis elegans, UniProt G5EF15); assay: inhibitors of POS-1/mex-3 RNA binding, dose response, biochemical, fluorescence polarization (AID 1964);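 further: purified POS-1 fused to maltose binding protein made in E. coli; potency of compounds blocking POS-1 binding to fluorescent RNA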
T3 sequence (G5EF15 whole entry): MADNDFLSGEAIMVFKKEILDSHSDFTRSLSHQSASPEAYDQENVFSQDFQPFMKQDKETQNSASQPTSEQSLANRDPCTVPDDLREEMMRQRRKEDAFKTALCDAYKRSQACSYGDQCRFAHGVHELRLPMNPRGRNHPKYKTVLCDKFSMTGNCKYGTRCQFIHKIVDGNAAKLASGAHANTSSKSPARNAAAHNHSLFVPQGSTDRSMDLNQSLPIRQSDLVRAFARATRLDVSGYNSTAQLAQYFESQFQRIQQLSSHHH

[10] = target: T4, Zinc finger protein mex-5 (Caenorhabditis elegans, UniProt Q9XUB2); assay: MEX-5/TCR-2 RNA interaction inhibitors, dose response, biochemical, C. elegans, fluorescence polarization (AID 1960)
T4 sequence (Q9XUB2 whole entry): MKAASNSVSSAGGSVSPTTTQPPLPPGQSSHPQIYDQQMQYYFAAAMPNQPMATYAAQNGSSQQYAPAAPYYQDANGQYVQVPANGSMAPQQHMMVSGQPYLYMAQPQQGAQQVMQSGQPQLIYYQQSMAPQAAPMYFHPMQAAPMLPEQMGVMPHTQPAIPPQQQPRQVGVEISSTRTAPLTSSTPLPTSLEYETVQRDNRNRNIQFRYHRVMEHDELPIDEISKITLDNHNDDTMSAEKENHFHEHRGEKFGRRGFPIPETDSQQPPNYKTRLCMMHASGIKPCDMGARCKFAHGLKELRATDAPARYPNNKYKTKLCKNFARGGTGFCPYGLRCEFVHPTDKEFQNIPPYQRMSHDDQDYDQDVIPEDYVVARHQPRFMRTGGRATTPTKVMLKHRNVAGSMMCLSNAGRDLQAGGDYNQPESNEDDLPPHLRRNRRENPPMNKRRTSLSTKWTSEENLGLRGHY

[11] = Luminescence Cell-Based Dose Response HTS to Identify Activators of Luciferase Translation or Activity in H4 […] Cells. [Related pubchem assays: 1829 (Project Summary), 1814 (Primary HTS)]; format: functional
[12] = tested on: H4; assay: Luminescence Cell-Based Dose Response HTS to Identify Activators of 5'UTR Stem-Loop Driven Prion Protein mRNA Translation in H4 Neuroglioblastoma Cells. [Related pubchem assays: 1829 (Project Summary), 1814 (Primary HTS)]; format: functional; conditions: Homo sapiens
[13] = target: T5, Protein skinhead-1 (Caenorhabditis elegans, UniProt P34707); format: functional
T5 sequence (P34707 whole entry): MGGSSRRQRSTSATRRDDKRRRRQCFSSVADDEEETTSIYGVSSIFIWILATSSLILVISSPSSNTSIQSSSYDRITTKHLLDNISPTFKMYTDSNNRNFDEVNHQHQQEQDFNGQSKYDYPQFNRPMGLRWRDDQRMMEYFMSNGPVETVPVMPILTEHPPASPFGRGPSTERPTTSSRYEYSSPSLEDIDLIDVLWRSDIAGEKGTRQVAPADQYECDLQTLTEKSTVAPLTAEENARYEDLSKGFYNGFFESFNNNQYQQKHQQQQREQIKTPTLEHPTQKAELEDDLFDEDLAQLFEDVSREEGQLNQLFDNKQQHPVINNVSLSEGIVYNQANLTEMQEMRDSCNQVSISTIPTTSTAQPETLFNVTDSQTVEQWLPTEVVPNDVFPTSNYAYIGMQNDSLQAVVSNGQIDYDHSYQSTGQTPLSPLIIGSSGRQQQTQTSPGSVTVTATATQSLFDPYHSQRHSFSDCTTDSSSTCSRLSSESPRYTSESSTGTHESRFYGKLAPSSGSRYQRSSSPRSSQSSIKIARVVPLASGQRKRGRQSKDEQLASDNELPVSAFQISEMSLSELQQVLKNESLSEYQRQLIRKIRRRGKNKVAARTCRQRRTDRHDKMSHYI

[14] = cells; format: functional
[15] = intracellular Trypanosoma cruzi inhibitors in host cells – cell-based, plate reader, cherry-pick samples, set 3, dose response (AID 651818); format: functional;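 further: compounds incubated with infected cells for about four days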
[16] = target: Paired box protein Pax-8 (Homo sapiens, UniProt Q06710); assay: inhibitors of PAX8-driven TPO luciferase reporter, dose response, RMG-I cells, cherry-pick (AID 687027); format: functional, cell-based;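 further: luciferase reporter driven by Pax8 target thyroperoxidase promoter measured by SteadyGlo luminescence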
Paired box protein Pax-8, sequence (Q06710 whole entry): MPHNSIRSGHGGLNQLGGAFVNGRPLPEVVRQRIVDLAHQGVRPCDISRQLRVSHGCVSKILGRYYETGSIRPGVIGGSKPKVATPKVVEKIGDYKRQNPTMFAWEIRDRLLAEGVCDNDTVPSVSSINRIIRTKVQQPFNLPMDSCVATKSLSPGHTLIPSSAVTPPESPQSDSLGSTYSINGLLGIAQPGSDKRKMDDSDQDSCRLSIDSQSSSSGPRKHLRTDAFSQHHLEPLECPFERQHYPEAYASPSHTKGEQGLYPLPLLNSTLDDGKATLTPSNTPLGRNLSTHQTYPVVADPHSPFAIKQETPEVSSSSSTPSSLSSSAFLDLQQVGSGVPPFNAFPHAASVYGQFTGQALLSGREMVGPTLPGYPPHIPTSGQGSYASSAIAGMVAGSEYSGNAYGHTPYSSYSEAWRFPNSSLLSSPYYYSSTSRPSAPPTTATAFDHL

Large T antigen, sequence (P03070 whole entry): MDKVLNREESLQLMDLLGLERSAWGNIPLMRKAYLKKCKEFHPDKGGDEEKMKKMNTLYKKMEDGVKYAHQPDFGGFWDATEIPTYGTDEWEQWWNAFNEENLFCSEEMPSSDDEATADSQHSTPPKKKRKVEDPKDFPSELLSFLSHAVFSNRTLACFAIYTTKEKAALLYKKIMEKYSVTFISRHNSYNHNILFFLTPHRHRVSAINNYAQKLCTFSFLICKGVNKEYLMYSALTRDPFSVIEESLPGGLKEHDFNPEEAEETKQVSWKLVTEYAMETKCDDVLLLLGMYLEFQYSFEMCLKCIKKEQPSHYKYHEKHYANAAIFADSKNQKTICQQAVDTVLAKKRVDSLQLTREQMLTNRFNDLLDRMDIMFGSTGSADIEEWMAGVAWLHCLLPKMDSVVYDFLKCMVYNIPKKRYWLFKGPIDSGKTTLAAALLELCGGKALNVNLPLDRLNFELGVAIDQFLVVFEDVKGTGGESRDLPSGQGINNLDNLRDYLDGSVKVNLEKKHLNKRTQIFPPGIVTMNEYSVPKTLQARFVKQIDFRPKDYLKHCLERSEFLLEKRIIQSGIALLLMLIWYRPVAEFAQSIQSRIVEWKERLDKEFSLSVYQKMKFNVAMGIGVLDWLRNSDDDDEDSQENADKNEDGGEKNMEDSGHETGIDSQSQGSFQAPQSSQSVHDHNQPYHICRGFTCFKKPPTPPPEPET

COc1cccc(C(=O)Oc2ccccc2/C=C\C(=O)c2cc3ccccc3o2)c1
EC50 [1]: 7.8 µM (active) | EC50 [2]: 6.66 µM (active)

CNC(=O)Oc1ccc2ncccc2c1
IC50 [3]: > 100 µM (active)

COC(=O)C1=C(C)N(c2ccc(F)c(Cl)c2)C(=O)C1
EC50 [2]: 206 µM (active)

CCC(C)c1ccc(NC(=O)Nc2cccnc2)cc1 (configuration not stated)
CC50 [4]: 22.7 µM (active)

CCOC(=O)N1CCN(c2ccc([N+](=O)[O-])cc2)CC1
CC50 [4]: 26 µM (active) | IC50 [5]: 30.7 µM (not active)

Oc1[nH]c2c(Cl)cc(Cl)cc2c1N=NC(S)=NCC1CCCO1 (configuration not stated)
EC50 [6]: 19.8 µM (inconclusive) | EC50 [7]: 3.03 µM (active) | EC50 [1]: 1.67 µM (active) | EC50 [2]: 1.22 µM (active)

C[n+]1cnc(-c2ccccc2)cc1-c1ccccc1
IC50 [8]: 3.35 µM (active)

Oc1[nH]c(S)nc2nc(S)nc1-2
EC50 [9]: 32 µM (active) | EC50 [10]: 8.3 µM (active) | IC50 [3]: 27.2 µM (active)

CCOc1nc(-c2ccc(OC)cc2)ccc1-c1noc(-c2cc(OC)c(OC)c(OC)c2)n1
EC50 [1]: 21.1 µM (active) | EC50 [2]: 25.5 µM (active)

COc1cc2ccccc2cc1C(=O)Nc1nccs1
EC50 [11]: 59.4 µM (active) | EC50 [12]: 22.8 µM (active) | IC50 [13]: 5.97 µM (active)

CCCCC(=O)Nc1cccc(-c2csc(-c3ccccc3)n2)c1
CC50 [4]: 23.9 µM (active)

COc1ccc2c(c1)CC/C(=C/c1ccco1)C2=O
IC50 [13]: 28.9 µM (active)

C=CCn1c(=S)[nH]c2scc(-c3ccco3)c2c1=O
IC50 [3]: 24.1 µM (active)

CCOc1cc(C=O)cc(N=Nc2cccc([N+](=O)[O-])c2)c1O
EC50 [6]: > 150 µM (inactive) | EC50 [7]: 4.04 µM (active) | IC50 [14]: 7.46 µM (active)

CCC(=O)Nc1cccc(-c2nc3ccc(C)cc3o2)c1
CC50 [4]: 39.4 µM (active)

COc1ccc(Cl)cc1NC(=O)C(C)OC(=O)c1ccc(NS(=O)(=O)c2ccc3[nH]c(O)nc3c2)cc1 (configuration not stated)
CC50 [4]: 15.8 µM (active)

COc1ccc(N2C(=O)/C(=C/c3ccc([N+](=O)[O-])cc3)C=C2c2ccccc2)cc1
IC50 [13]: > 100 µM (inactive)

O=S(=O)(c1ccccc1)N1CCC(c2nc(O)c3nnn(Cc4c(F)cccc4Cl)c3n2)CC1
CC50 [4]: 26 µM (active)

CCOc1ccccc1C(=O)Nc1cc2c(cc1N1CCCC1)n(CC)c(=O)n2CC
CC50 [4]: 13.5 µM (active)

O=C(COC(=O)/C=C/c1ccco1)Nc1ncc(Cl)cc1Cl
IC50 [8]: 17 µM (active)

CCCCCOc1ccccc1C(=O)NCCC(=O)O
IC50 [13]: > 100 µM (inactive)

CC(=O)Oc1cc2c(C(=O)NCCCN3CCOCC3)c(C)oc2c2ccccc12
EC50 [1]: 3.79 µM (active) | EC50 [2]: 4.45 µM (active)

Fc1ccc(OCc2nc(-c3cccs3)no2)cc1
IC50 [13]: 24.5 µM (active)

O=C1c2ccccc2C(=O)N1CCCCN(C(=O)c1cccc([N+](=O)[O-])c1)c1ccc(Cl)cc1
CC50 [4]: 43.7 µM (active)

C=CCNC(=O)COC(=O)c1c2c(nc3ccccc13)CCC2
IC50 [8]: 7.39 µM (active)

Nc1cc(S(=O)(=O)c2ccc(O)c(N)c2)ccc1O
IC50 [3]: 20.5 µM (active)

COc1ccc(N2C(=O)/C(=C/c3ccc(C)o3)C(=O)NC2=S)c(OC)c1
EC50 [9]: > 300 µM (not active) | EC50 [10]: 41.3 µM (active) | IC50 [3]: 34.3 µM (active)

O=C(CSc1oc(-c2ccc(F)cc2)nc1S(=O)(=O)c1ccc(F)cc1)NCC1CCCO1 (configuration not stated)
EC50 [1]: 10.2 µM (active) | EC50 [2]: 13.6 µM (active)

Cc1ccccc1-c1noc(-c2cccs2)n1
IC50 [13]: 7.91 µM (active)

Cc1cccc(C(=O)OCC(=O)c2ccc(CC(=O)N3CCOCC3)s2)c1C
IC50 [8]: 6.46 µM (active)

Cc1ccc2ncnc(Nc3cccc([N+](=O)[O-])c3)c2c1
IC50 [13]: > 100 µM (inactive)

CCCC(C(=O)Nc1ccc(S(=O)(=O)N2CCOCC2)cc1)c1ccccc1 (configuration not stated)
IC50 [13]: > 100 µM (inactive)

CCC(C(=O)N(C(C)C)C(C)C)c1ccccc1 (configuration not stated)
IC50 [13]: > 100 µM (inactive)

C[C@H](CO)N1C[C@H](C)[C@@H](CN(C)Cc2ccc(Oc3ccccc3)cc2)Oc2ccc(N(C)C)cc2C1=O
AC50 [15]: 2.27 µM (active)

C[C@H]1CN([C@@H](C)CO)C(=O)c2cccc(NC(=O)CCCCCC(=O)Nc3ccccc3N)c2O[C@@H]1CN(C)CC1CCCCC1
AC50 [15]: 1.95 µM (active)

C[C@H](CO)N1C[C@H](C)[C@H](CN(C)Cc2ccc(C(=O)Nc3ccccc3N)cc2)Oc2ccc(NS(=O)(=O)c3ccc(F)cc3)cc2CC1=O
AC50 [15]: 2.64 µM (active)

Cc1ccc(S(=O)(=O)N(C)C[C@H]2Oc3ccc(NC(=O)Nc4cccc5ccccc45)cc3CC(=O)N([C@@H](C)CO)C[C@H]2C)cc1
AC50 [15]: 4.81 µM (active)

C[C@@H]1CN([C@@H](C)CO)C(=O)c2cccc(NC(=O)c3ccncc3)c2O[C@@H]1CN(C)Cc1ccc(Cl)c(Cl)c1
AC50 [15]: 1.31 µM (active)

COc1ccc(NC(=O)Nc2ccc3c(c2)CC(=O)N([C@H](C)CO)C[C@@H](C)[C@@H](CN(C)Cc2ccc(Oc4ccccc4)cc2)O3)cc1
AC50 [15]: 2.09 µM (active) | AC50 [16]: 23.5 µM (active)

COc1ccc(S(=O)(=O)Nc2ccc3c(c2)C(=O)N([C@H](C)CO)C[C@H](C)[C@H](CN(C)Cc2ccc(C(F)(F)F)cc2)OCCCC[C@@H](C)O3)cc1
AC50 [15]: 3.2 µM (active)

C[C@@H]1CN([C@@H](C)CO)C(=O)c2cccc(NC(=O)Nc3ccc(C(F)(F)F)cc3)c2O[C@@H]1CN(C)S(=O)(=O)c1ccc(Cl)cc1
AC50 [15]: 2.79 µM (active)

C[C@@H]1CN([C@H](C)CO)C(=O)Cc2cc(NC(=O)NC3CCCCC3)ccc2O[C@H]1CN(C)Cc1ccc(C(=O)Nc2ccccc2N)cc1
AC50 [15]: 5.26 µM (active)

C[C@@H]1CCCCO[C@H](CN(C)Cc2ccc(C(F)(F)F)cc2)[C@@H](C)CN([C@H](C)CO)C(=O)c2cc(NC(=O)Nc3ccc(C(F)(F)F)cc3)ccc2O1
AC50 [15]: 3.15 µM (active)

O=C(C/C=N\OCc1ccc([N+](=O)[O-])cc1)Nc1ccccc1
IC50 [14]: 16.1 µM (active)

O=C(Cc1nnc(NC(=O)c2ccccc2)s1)N/N=C/c1ccc(O)cc1
IC50 [8]: 8.5 µM (active)

Reference: ChEMBL document CHEMBL1201862, “PubChem BioAssay data set” (2004)
